Test results as given in patent publication US8431596B2 (Cancer Research Technology Limited, priority 2007, dated 2013).

Target: T1, AXL (human catalytic domain) (Homo sapiens, UniProt P30530)
T1 construct: purchased Upstate Ltd. 14-512
T1 sequence (P30530 473-894): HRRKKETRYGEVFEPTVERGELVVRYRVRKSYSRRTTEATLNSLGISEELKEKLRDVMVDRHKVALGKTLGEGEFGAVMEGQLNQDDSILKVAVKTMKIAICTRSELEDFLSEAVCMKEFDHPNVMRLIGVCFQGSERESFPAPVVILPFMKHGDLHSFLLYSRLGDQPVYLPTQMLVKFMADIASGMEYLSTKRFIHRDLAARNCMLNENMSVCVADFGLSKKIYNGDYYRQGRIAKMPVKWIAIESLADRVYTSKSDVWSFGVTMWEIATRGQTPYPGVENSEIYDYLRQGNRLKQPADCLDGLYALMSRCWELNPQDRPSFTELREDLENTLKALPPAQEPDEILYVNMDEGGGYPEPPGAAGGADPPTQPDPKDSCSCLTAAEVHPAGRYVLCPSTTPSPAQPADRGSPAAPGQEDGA
Experiment: AXL (human catalytic domain) Enzyme Activity Assay (IMAP fluorescence polarisation)
Assay type: biochemical
Conditions: further data set (WW-001 through WW-169, XX-001 through XX-469, YY-001 through YY-016, ZZ-001 through ZZ-003); 150 μM ATP
Summary of the method: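 IMAP FP readout (Ex485/Em535, after overnight binding) measured inhibition of the human AXL catalytic domain (aa473-894, 15 nM final) acting on 100 nM 5FAM-CSK-tide at 150 μM ATP, equal to KM. Reactions ran 60 min at room temperature in pH 7.0 HEPES buffer; IC50 from 10-point curves.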

| SMILES | IC50 |
| --- | --- |
| Cc1ccccc1-c1cccc2nc(Nc3ccc(OCCN4CCCC4)cc3)nn12 [XX-212] | 1 to 10 µM |
| Cc1ccc2sc(-c3cccc4nc(Nc5ccc(OCCN6CCCC6)cc5)nn34)cc2c1 [XX-214] | 0.1 to 1 µM |
| CS(=O)(=O)c1ccc(-c2cccc3nc(Nc4ccc(OCCN5CCCC5)cc4)nn23)cc1 [XX-215, [5-(4-Methanesulfonyl-phenyl)-[1,2,4]triazolo[1,5-a]pyridin-2-yl]-[4-(2-pyrrolidin-1-yl-ethoxy)-phenyl]-amine] | 0.1 to 1 µM |
| COCc1ccc(-c2cccc3nc(Nc4ccc(OCCN5CCCC5)cc4)nn23)cc1 [XX-217] | 0.1 to 1 µM |
| FC(F)(F)c1ccc(-c2cccc3nc(Nc4ccc(OCCN5CCCC5)cc4)nn23)cc1 [XX-218] | 0.1 to 1 µM |
| O=C(Nc1ccc(-c2cccc3nc(Nc4ccc(OCCN5CCCC5)cc4)nn23)cc1)c1ccccc1 [XX-221, N-(4-{2-[4-(2-Pyrrolidin-1-yl-ethoxy)-phenylamino]-[1,2,4]triazolo[1,5-a]pyridin-5-yl}-phenyl)-benzamide] | 1 to 10 µM |
| Clc1cccc(CNc2ccc(-c3cccc4nc(Nc5ccc(OCCN6CCCC6)cc5)nn34)cc2)c1 [XX-223, {5-[4-(3-Chloro-benzylamino)-phenyl]-[1,2,4]triazolo[1,5-a]pyridin-2-yl}-[4-(2-pyrrolidin-1-yl-ethoxy)-phenyl]-amine] | 1 to 10 µM |
| CS(=O)(=O)Nc1cccc(-c2cccc3nc(Nc4ccc(OCCN5CCCC5)cc4)nn23)c1 [XX-224] | 0.1 to 1 µM |
| O=C(Nc1ccc(C(F)(F)F)cc1)Nc1cccc(-c2cccc3nc(Nc4ccc(OCCN5CCCC5)cc4)nn23)c1 [XX-225] | 1 to 10 µM |
| O=C(Cc1cccc(Cl)c1)Nc1cccc(-c2cccc3nc(Nc4ccc(OCCN5CCCC5)cc4)nn23)c1 [XX-227, 2-(3-Chloro-phenyl)-N-(3-{2-[4-(2-pyrrolidin-1-yl-ethoxy)-phenylamino]-[1,2,4]triazolo[1,5-a]pyridin-5-yl}-phenyl)-acetamide] | 1 to 10 µM |
| COc1ccccc1NC(=O)Nc1cccc(-c2cccc3nc(Nc4ccc(OCCN5CCCC5)cc4)nn23)c1 [XX-229] | 1 to 10 µM |
| COc1ccc(NC(=O)Nc2cccc(-c3cccc4nc(Nc5ccc(OCCN6CCCC6)cc5)nn34)c2)cc1 [XX-231] | 0.1 to 1 µM |
| O=C(Nc1ccc(Cl)cc1)Nc1cccc(-c2cccc3nc(Nc4ccc(OCCN5CCCC5)cc4)nn23)c1 [XX-233] | 1 to 10 µM |
| COc1ccc(-c2cccc3nc(Nc4ccc(OCCN5CCCC5)cc4)nn23)nc1 [XX-235] | 0.1 to 1 µM |
| CN(C)c1cccc(-c2cccc3nc(Nc4ccc(OCCN5CCCC5)cc4)nn23)c1 [XX-236] | 0.1 to 1 µM |
| OCc1ccc(-c2cccc3nc(Nc4ccc(OCCN5CCCC5)cc4)nn23)cc1 [XX-237] | 0.1 to 1 µM |
| COc1ccc(-c2cccc3nc(Nc4ccc(OCCN5CCCC5)cc4)nn23)cc1F [XX-240] | 0.1 to 1 µM |
| c1ccc2cc(-c3cccc4nc(Nc5ccc(OCCN6CCCC6)cc5)nn34)ccc2c1 [XX-242] | 0.1 to 1 µM |
| Oc1ccc(-c2cccc3nc(Nc4ccc(OCCN5CCCC5)cc4)nn23)cc1F [XX-243] | 0.1 to 1 µM |
| COc1ccc(-c2cccc3nc(Nc4ccc(OCCN5CCCC5)cc4)nn23)cc1OC [XX-245] | 1 to 10 µM |

| SMILES | IC50 |
| --- | --- |
| COc1cc(-c2cccc3nc(Nc4ccc(OCCN5CCCC5)cc4)nn23)cc(OC)c1OC [XX-246] | 1 to 10 µM |
| CC(c1ccc(-c2cccc3nc(Nc4ccc(OCCN5CCCC5)cc4)nn23)cc1)N(C)C (stereo not drawn) [XX-248] | 0.1 to 1 µM |
| O=C(Nc1ccc(-c2cccc3nc(Nc4ccc(OCCN5CCCC5)cc4)nn23)cc1)c1ccncc1 [XX-249] | 0.1 to 1 µM |
| O=C(Nc1ccc(-c2cccc3nc(Nc4ccc(OCCN5CCCC5)cc4)nn23)cc1)c1ccno1 [XX-250] | 0.1 to 1 µM |
| Cc1cc(C(=O)Nc2ccc(-c3cccc4nc(Nc5ccc(OCCN6CCCC6)cc5)nn34)cc2)on1 [XX-251] | 0.1 to 1 µM |
| c1ccc(CNc2ccc(-c3cccc4nc(Nc5ccc(OCCN6CCCC6)cc5)nn34)cc2)cc1 [XX-252] | 0.1 to 1 µM |
| CS(=O)(=O)Nc1ccc(-c2cccc3nc(Nc4ccc(OCCN5CCCC5)cc4)nn23)cc1 [XX-253] | 0.1 to 1 µM |
| COc1ccc(S(=O)(=O)Nc2ccc(-c3cccc4nc(Nc5ccc(OCCN6CCCC6)cc5)nn34)cc2)cc1 [XX-254, 4-Methoxy-N-(4-{2-[4-(2-pyrrolidin-1-yl-ethoxy)-phenylamino]-[1,2,4]triazolo[1,5-a]pyridin-5-yl}-phenyl)-benzenesulfonamide] | 0.1 to 1 µM |
| c1cc(NCc2ccco2)cc(-c2cccc3nc(Nc4ccc(OCCN5CCCC5)cc4)nn23)c1 [XX-257] | 0.1 to 1 µM |
| Cn1cncc1CNc1cccc(-c2cccc3nc(Nc4ccc(OCCN5CCCC5)cc4)nn23)c1 [XX-259] | 0.1 to 1 µM |
| Cc1nc(C)c(CNc2cccc(-c3cccc4nc(Nc5ccc(OCCN6CCCC6)cc5)nn34)c2)s1 [XX-263] | 0.1 to 1 µM |
| Fc1cccc(CNc2cccc(-c3cccc4nc(Nc5ccc(OCCN6CCCC6)cc5)nn34)c2)c1 [XX-264] | 0.1 to 1 µM |
| c1ccc(CCNc2ccc(-c3cccc4nc(Nc5ccc(OCCN6CCCC6)cc5)nn34)cc2)cc1 [XX-265] | 1 to 10 µM |
| COc1ccc(CNc2ccc(-c3cccc4nc(Nc5ccc(OCCN6CCCC6)cc5)nn34)cc2)cc1 [XX-266] | 0.1 to 1 µM |
| Cc1ccc(CNc2ccc(-c3cccc4nc(Nc5ccc(OCCN6CCCC6)cc5)nn34)cc2)cc1 [XX-267] | 0.1 to 1 µM |
| c1cc(-c2ccc(NCc3ccoc3)cc2)n2nc(Nc3ccc(OCCN4CCCC4)cc3)nc2c1 [XX-268] | 0.1 to 1 µM |
| CNC(=O)c1ccc(-c2cccc3nc(Nc4ccc(OCCN5CCCC5)cc4)nn23)cc1 [XX-269] | 1 to 10 µM |
| c1cc(-c2ccc(Cn3cccn3)cc2)n2nc(Nc3ccc(OCCN4CCCC4)cc3)nc2c1 [XX-270] | 0.1 to 1 µM |
| FC(F)(F)c1cccc(Cn2cc(-c3cccc4nc(Nc5ccc(OCCN6CCCC6)cc5)nn34)cn2)c1 [XX-273] | 0.1 to 1 µM |
| CC(C)Cn1cc(-c2cccc3nc(Nc4ccc(OCCN5CCCC5)cc4)nn23)cn1 [XX-274] | 1 to 10 µM |

Second part, the compound after the results:

| IC50 | SMILES |
| --- | --- |
| 0.1 to 1 µM | Cc1cccc(-c2cccc3nc(Nc4ccc(OCCN5CCCC5)cc4)nn23)c1 [XX-213] |
| 0.1 to 1 µM | c1ccc(-c2ccc(-c3cccc4nc(Nc5ccc(OCCN6CCCC6)cc5)nn34)cc2)cc1 [XX-216] |
| 1 to 10 µM | c1cc(-c2ccncc2)n2nc(Nc3ccc(OCCN4CCCC4)cc3)nc2c1 [XX-219] |
| 1 to 10 µM | O=C(Nc1ccc(-c2cccc3nc(Nc4ccc(OCCN5CCCC5)cc4)nn23)cc1)c1cccc(Cl)c1 [XX-220] |
| 1 to 10 µM | O=C(Cc1cccc(Cl)c1)Nc1ccc(-c2cccc3nc(Nc4ccc(OCCN5CCCC5)cc4)nn23)cc1 [XX-222] |
| 0.1 to 1 µM | c1cc(-c2ccc3c(c2)OCCO3)n2nc(Nc3ccc(SCCN4CCCC4)cc3)nc2c1 [XX-226] |
| 1 to 10 µM | CC(C(=O)Nc1cccc(-c2cccc3nc(Nc4ccc(OCCN5CCCC5)cc4)nn23)c1)c1cccc(Cl)c1 (stereo not drawn) [XX-228] |
| 1 to 10 µM | COc1cccc(NC(=O)Nc2cccc(-c3cccc4nc(Nc5ccc(OCCN6CCCC6)cc5)nn34)c2)c1 [XX-230] |
| 1 to 10 µM | O=C(Nc1cccc(-c2cccc3nc(Nc4ccc(OCCN5CCCC5)cc4)nn23)c1)Nc1ccccc1Cl [XX-232] |
| 0.1 to 1 µM | Fc1ccccc1CNc1cccc(-c2cccc3nc(Nc4ccc(OCCN5CCCC5)cc4)nn23)c1 [XX-238] |
| 1 to 10 µM | CN(C)C(=O)c1ccc(-c2cccc3nc(Nc4ccc(OCCN5CCCC5)cc4)nn23)cc1 [XX-239] |
| 0.1 to 1 µM | CC(=O)Nc1cccc(-c2cccc3nc(Nc4ccc(OCCN5CCCC5)cc4)nn23)c1 [XX-241] |
| 0.1 to 1 µM | FC(F)(F)Oc1ccc(-c2cccc3nc(Nc4ccc(OCCN5CCCC5)cc4)nn23)cc1 [XX-244] |
| 0.1 to 1 µM | c1ccc(Oc2ccc(-c3cccc4nc(Nc5ccc(OCCN6CCCC6)cc5)nn34)cc2)cc1 [XX-247] |
| 0.1 to 1 µM | Nc1cccc(-c2cccc3nc(Nc4ccc(OCCN5CCCC5)cc4)nn23)c1 [XX-255, [5-(3-Amino-phenyl)-[1,2,4]triazolo[1,5-a]pyridin-2-yl]-[4-(2-pyrrolidin-1-yl-ethoxy)-phenyl]-amine] |
| 0.1 to 1 µM | Oc1cccc(-c2cccc3nc(Nc4ccc(OCCN5CCCC5)cc4)nn23)c1 [XX-256, 3-{2-[4-(2-Pyrrolidin-1-yl-ethoxy)-phenylamino]-[1,2,4]triazolo[1,5-a]pyridin-5-yl}-phenol] |
| 1 to 10 µM | Cn1ccnc1CNc1cccc(-c2cccc3nc(Nc4ccc(OCCN5CCCC5)cc4)nn23)c1 [XX-258] |
| 1 to 10 µM | c1cc(NCc2cncs2)cc(-c2cccc3nc(Nc4ccc(OCCN5CCCC5)cc4)nn23)c1 [XX-260] |
| 0.1 to 1 µM | c1cc(NCc2ncc[nH]2)cc(-c2cccc3nc(Nc4ccc(OCCN5CCCC5)cc4)nn23)c1 [XX-261] |
| 1 to 10 µM | Cc1cc(CNc2cccc(-c3cccc4nc(Nc5ccc(OCCN6CCCC6)cc5)nn34)c2)n(C)n1 [XX-262] |
| 0.1 to 1 µM | Cc1ccc(S(=O)(=O)Nc2ccc(-c3cccc4nc(Nc5ccc(OCCN6CCCC6)cc5)nn34)cc2)cc1 [XX-271] |
| 1 to 10 µM | c1cc(-c2cnn(CCN3CCOCC3)c2)n2nc(Nc3ccc(OCCN4CCCC4)cc3)nc2c1 [XX-272] |
| 0.1 to 1 µM | c1csc(Cn2cc(-c3cccc4nc(Nc5ccc(OCCN6CCCC6)cc5)nn34)cn2)c1 [XX-275] |
